From PMC12057046, “Elucidation of short linear motif-based interactions of the MIT and rhodanese domains of the ubiquitin-specific protease 8” (Biology Direct, 2025) come the findings set out here.

One assay deals with T1, USP8 Rhod domain (Homo sapiens, UniProt P40818).
T1 construct: USP8 Rhod (174–317) (UniProt: P40818); GST (cleaved yes); made in house; host or cells: Escherichia coli BL21-Gold (DE3)
T1 sequence (P40818 174-317): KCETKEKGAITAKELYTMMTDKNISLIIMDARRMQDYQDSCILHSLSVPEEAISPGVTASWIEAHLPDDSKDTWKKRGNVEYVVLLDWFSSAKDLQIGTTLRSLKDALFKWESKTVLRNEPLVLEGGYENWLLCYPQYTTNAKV
In words: Peptide-phage display-based deep mutational scanning (DMS), USP8 Rhod domain. Particulars: ProP-PD pairs, bait USP8_Rhodanese__P40818_174_317; wild-type/mutant pair, wild type KIAA1614 569-584 GMERVLGGLSSPLRLL (wt_00013). Format: binding. As to the method: Four rounds of phage selections were carried out using the second generation human disorderome library or the constructed deep mutational scanning library. At least three individual replicates were used for each bait protein. 10 µg of GST-tagged proteins or GST control (diluted in PBS from the stock of proteins kept in the purification elution buffer) were immobilized in 100 µL PBS on a 96-well MaxiSorp (Nunc) plate overnight at 4 °C. The plates were incubated with blocking buffer (with 0.5% BSA in PBS) for 1 h at 4 °C followed by washing with 0.05% Tween 20 in PBS four times. The naïve phage library (10^11 CFU) was diluted in 1/5th volume PEG/NaCl (20% PEG-8000, 0.4 M NaCl) and 1X PBS, incubated on ice for 10 min and centrifuged at 10,000 [drawing 3] g for 10 min. The pellet was resuspended in the volume of PBS (100 µL/ well). The GST-coated control plate was incubated with 100 µL library per well in PBS for 1 h at 4 °C to remove non-specific binders. The supernatant was transferred to the target wells and incubated for 2 h at 4 °C. The wells were washed five times with 0.05% Tween 20 in PBS and the bound phages were eluted with 100 µL per well log-phase E. coli OmniMAX by incubating at 37° C while shaking. After 30 min, M13KO7 helper phages were added and incubated for an additional 45 min. The bacterial cultures were transferred to 1 mL 2YT supplemented with 100 µg/mL carbenicillin, 30 µg/mL kanamycin and 0.3 mM IPTG and grew overnight at 37 °C while shaking. The following day the cultures were centrifuged for 10 min at 2,000 [drawing 4] g, 4 °C. 1/10th volume of 10 [drawing 5] PBS was added to adjust the pH and heated at 65 °C for 10 min. The phage pools from each round were used as in-phages for the next round of selections.
The samples were prepared for NGS as previously described. […] The PCR products were normalized with 25 µL Mag-bind Total Pure NGS beads (Omega Biotek) and 10 µL of each eluted sample (Qiagen Elution Buffer) was pooled and cleaned-up with a PCR purification kit (Qiagen). The PCR product was confirmed by 2% agarose electrophoresis and the band was extracted with QIAquick Gel extraction Kit (Qiagen) and eluted with 30 µL TE buffer. The dsDNA was quantified using QuantiT PicoGreen dsDNA Assay Kit (Thermo Fisher) and sent for NGS (Illumina MiSeq v3, 1 × 150 bp read setup, 20% PhiX, NGI SciLifeLab facility, Sweden). The NGS data were demultiplexed, adapter regions were trimmed and sequences with an average quality of at least 20 were translated to peptide sequences. The NGS data were analysed using custom Python scripts. The total read NGS counts for each selection experiment of each peptide sequence were compiled and annotated in PepTools (https://slim.icr.ac.uk/tools/peptools/). Since ProP-PD is in essence a competition assay, the possibility of the input phage library influencing the selection outcome was explored. […] Pearson correlation coefficient and p-value were calculated using Python’s SciPy library.
The sequence DMERVLGGLSSPLRLL had a hit_pair_ratio of 1.56.

With EMERVLGGLSSPLRLL, the hit_pair_ratio is given as 2.87.

For the sequence FMERVLGGLSSPLRLL, the hit_pair_ratio stood at 321.97.

Consider GAERVLGGLSSPLRLL, for which the hit_pair_ratio is -2.65.

In turn, GDERVLGGLSSPLRLL had a hit_pair_ratio of -4.95.

Take GEERVLGGLSSPLRLL: the hit_pair_ratio is on record as -32.83.

Sequence GFERVLGGLSSPLRLL yielded a hit_pair_ratio of 1.56.

Take GGERVLGGLSSPLRLL: the hit_pair_ratio is -22.40.

Consider GHERVLGGLSSPLRLL, for which the hit_pair_ratio is -7.73.

As to GIERVLGGLSSPLRLL, the hit_pair_ratio is -4.51.

Sequence GKERVLGGLSSPLRLL yielded a hit_pair_ratio of -1.45.

Still in this assay, the particulars now being: bait USP8_Rhodanese__P40818_174_317; wild-type/mutant pair ratio of averaged fractions; negative values where mutant fraction is higher.
Take AMERVLGGLSSPLRLL: the hit_pair_ratio is listed as -9.71.

Take GLALWEAKMAQLAERA: the hit_pair_ratio is given as -3.11.

On to GLALWEAKMDQLAERA, for which the hit_pair_ratio is 25.01.

For the sequence GLALWEAKMEQLAERA, the hit_pair_ratio was -4.35.

In the case of GLALWEAKMFQLAERA, the hit_pair_ratio came to 59.51.

Turning to GLALWEAKMGQLAERA, the hit_pair_ratio is reported as -1.24.

With GLALWEAKMHQLAERA, the hit_pair_ratio was -2.45.

GLALWEAKMIQLAERA: the hit_pair_ratio was found to be 19.96.

Consider GLALWEAKMKALAERA, for which the hit_pair_ratio is recorded as 133.35.

Take GLALWEAKMKDLAERA: the hit_pair_ratio is -1.51.

On to GLALWEAKMKFLAERA, for which the hit_pair_ratio is recorded as 1107.01.

Turning to GLALWEAKMKGLAERA, the hit_pair_ratio was found to be 5.73.

On to GLALWEAKMKHLAERA, for which the hit_pair_ratio was 17.96.

With GLALWEAKMKILAERA, the hit_pair_ratio was determined as 553.50.

For the sequence GLALWEAKMKKLAERA, the hit_pair_ratio is reported as 417.62.

For GLALWEAKMKLLAERA, the hit_pair_ratio was -2.26.

For GLALWEAKMKMLAERA, the hit_pair_ratio stood at 23.91.

On to GLALWEAKMKNLAERA, for which the hit_pair_ratio stood at 1.69.

Take GLALWEAKMKQAAERA: the hit_pair_ratio amounted to 417.62.

Consider GLALWEAKMKQFAERA, for which the hit_pair_ratio is 553.50.

As for GLALWEAKMKQIAERA, the hit_pair_ratio is on record as 1107.01.

Take GLALWEAKMKQKAERA: the hit_pair_ratio worked out at 1107.01.

In the case of GLALWEAKMKQLAARA, the hit_pair_ratio came out at 114.71.

For the sequence GLALWEAKMKQLADRA, the hit_pair_ratio is listed as 175.67.

Take GLALWEAKMKQLAEAA: the hit_pair_ratio is 1107.01.

Consider GLALWEAKMKQLAEDA, for which the hit_pair_ratio came out at 66.48.

For GLALWEAKMKQLAEEA, the hit_pair_ratio worked out at 15.47.

Regarding GLALWEAKMKQLAEFA, the hit_pair_ratio is 208.81.

As for GLALWEAKMKQLAEGA, the hit_pair_ratio is recorded as 5.87.

As to GLALWEAKMKQLAEHA, the hit_pair_ratio turned out to be 25.68.

With GLALWEAKMKQLAEKA, the hit_pair_ratio turned out to be 12.41.

As for GLALWEAKMKQLAELA, the hit_pair_ratio stood at 11.23.

On to GLALWEAKMKQLAEMA, for which the hit_pair_ratio is 12.23.

Regarding GLALWEAKMKQLAENA, the hit_pair_ratio turned out to be 55.62.

Turning to GLALWEAKMKQLAEPA, the hit_pair_ratio is given as -18.07.

For GLALWEAKMKQLAEQA, the hit_pair_ratio was -4.51.

As for GLALWEAKMKQLAERD, the hit_pair_ratio is -5.62.

With GLALWEAKMKQLAERE, the hit_pair_ratio is recorded as 4.16.

As for GLALWEAKMKQLAERF, the hit_pair_ratio is on record as 1107.01.

For the sequence GLALWEAKMKQLAERG, the hit_pair_ratio is 73.80.

As to GLALWEAKMKQLAERH, the hit_pair_ratio was 208.81.

Consider GLALWEAKMKQLAERI, for which the hit_pair_ratio is -1.09.

Turning to GLALWEAKMKQLAERL, the hit_pair_ratio was found to be 72.57.

As to GLALWEAKMKQLAERM, the hit_pair_ratio is 33.55.

Consider GLALWEAKMKQLAERN, for which the hit_pair_ratio is reported as -1.05.

Turning to GLALWEAKMKQLAERP, the hit_pair_ratio was -3.73.

Take GLALWEAKMKQLAERQ: the hit_pair_ratio is listed as 3.47.

For GLALWEAKMKQLAERR, the hit_pair_ratio was found to be 553.50.

For the sequence GLALWEAKMKQLAERS, the hit_pair_ratio came to 1.62.

With GLALWEAKMKQLAERT, the hit_pair_ratio is recorded as 1.21.

In the case of GLALWEAKMKQLAERV, the hit_pair_ratio is listed as -1.88.

Turning to GLALWEAKMKQLAERY, the hit_pair_ratio came out at 303.23.

Turning to GLALWEAKMKQLAESA, the hit_pair_ratio was -3.11.

As to GLALWEAKMKQLAETA, the hit_pair_ratio is reported as -1.95.

For GLALWEAKMKQLAEVA, the hit_pair_ratio came out at 195.90.

GLALWEAKMKQLAEWA: the hit_pair_ratio is recorded as 38.36.

In the case of GLALWEAKMKQLAEYA, the hit_pair_ratio was -10.12.

Take GLALWEAKMKQLAFRA: the hit_pair_ratio was determined as 24.07.

GLALWEAKMKQLAGRA: the hit_pair_ratio is reported as 14.06.

Consider GLALWEAKMKQLAIRA, for which the hit_pair_ratio was 1107.01.

As for GLALWEAKMKQLALRA, the hit_pair_ratio is listed as 13.05.

The assay is the same for the next values; noted with them: wild type/mutant pair; bait USP8_Rhodanese__P40818_174_317; vs hit_library_peptide_wt GLALWEAKMKQLAERA; negative where mutant fraction exceeds wild type; ProP-PD pairs (sheet S7.B).
ELALWEAKMKQLAERA: the hit_pair_ratio is on record as 75.56.

In turn, GAALWEAKMKQLAERA returned a hit_pair_ratio of 1107.01.

Take GFALWEAKMKQLAERA: the hit_pair_ratio stood at 114.71.

As for GHALWEAKMKQLAERA, the hit_pair_ratio was found to be 175.67.

As for GIALWEAKMKQLAERA, the hit_pair_ratio was found to be 1.27.

GKALWEAKMKQLAERA returned a hit_pair_ratio of 369.00.

Sequence GLAAWEAKMKQLAERA showed a hit_pair_ratio of 52.20.

For GLADWEAKMKQLAERA, the hit_pair_ratio was found to be 1107.01.

The sequence GLAEWEAKMKQLAERA had a hit_pair_ratio of 52.71.

Take GLAFWEAKMKQLAERA: the hit_pair_ratio was 21.29.

GLAGWEAKMKQLAERA returned a hit_pair_ratio of 208.81.

GLAHWEAKMKQLAERA returned a hit_pair_ratio of 369.00.

In turn, GLAIWEAKMKQLAERA yielded a hit_pair_ratio of -44.11.

Consider GLAKWEAKMKQLAERA, for which the hit_pair_ratio was 1107.01.

In the case of GLALFEAKMKQLAERA, the hit_pair_ratio is listed as 1107.01.

In the case of GLALGEAKMKQLAERA, the hit_pair_ratio was 65.12.

The sequence GLALHEAKMKQLAERA returned a hit_pair_ratio of 1107.01.

For the sequence GLALKEAKMKQLAERA, the hit_pair_ratio worked out at 553.50.

GLALLEAKMKQLAERA registered a hit_pair_ratio of 417.62.

GLALMEAKMKQLAERA displayed a hit_pair_ratio of 16.52.

GLALPEAKMKQLAERA displayed a hit_pair_ratio of 110.70.

Sequence GLALREAKMKQLAERA showed a hit_pair_ratio of 303.23.

For GLALSEAKMKQLAERA, the hit_pair_ratio came out at 61.66.

Sequence GLALTEAKMKQLAERA displayed a hit_pair_ratio of 1107.01.

Sequence GLALVEAKMKQLAERA returned a hit_pair_ratio of 1107.01.

As to GLALWAAKMKQLAERA, the hit_pair_ratio is given as 553.50.

With GLALWDAKMKQLAERA, the hit_pair_ratio is listed as 51.13.

With GLALWEAEMKQLAERA, the hit_pair_ratio is given as 1107.01.

In turn, GLALWEAKAKQLAERA gave a hit_pair_ratio of 7.49.

GLALWEAKFKQLAERA returned a hit_pair_ratio of 369.00.

Consider GLALWEAKHKQLAERA, for which the hit_pair_ratio turned out to be 127.97.

GLALWEAKIKQLAERA came in with a hit_pair_ratio of 101.08.

The sequence GLALWEAKLKQLAERA yielded a hit_pair_ratio of 1107.01.
